Measured values published in US12240840B2, “Amide-substituted heterocyclic compounds for the treatment of conditions related to the modulation of IL-12, IL-23 and/or IFN-alpha” (BRISTOL-MYERS SQUIBB COMPANY, priority 2018, dated 2025).

tested on: IFNα-induced pSTAT5 (pY694) in CD3 positive cells of human whole blood; experiment: IFNα-Induced STAT Phosphorylation in Human Whole Blood; assay type: cell-based; details: Homo sapiens, 1 h compound incubation, 1000 U/mL recombinant human IFNα A/D for 15 min, pSTAT5 in CD3 positive population, read-out: Human WB IFNα-Induced Stat Phosph. (IC50)
In short: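 Read-out is median fluorescence intensity of pSTAT5 (pY694) in the CD3-positive gate, by flow cytometry after fix/lyse and permeabilization. Before that, whole human blood anticoagulated with EDTA or ACD-A received compound for an hour and 1000 U/mL IFNα A/D for 15 min.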

| Compound | IC50 [nM] |
| --- | --- |
| [2H]C([2H])([2H])NC(=O)c1nnc(NC(=O)C2CC2)cc1Nc1cccc(-c2noc(C(CC)C(=O)NCCOC)n2)c1OC (centres unmarked) [Example 41] | 60 |
| COc1c(Nc2cc(NC(=O)C3CC3)nnc2C(N)=O)cccc1-c1noc(CNS(C)(=O)=O)n1 [Example 38] | 30 |
| CCC(C(=O)NCCOC)c1nc(-c2cccc(Nc3cc(NC(=O)C4CC4)nnc3C(N)=O)c2OC)no1 (centres unmarked) [Example 56] | 120 |
| [2H]C([2H])([2H])NC(=O)c1nnc(NC(=O)C2CC2)cc1Nc1cccc(-c2nc(CN)no2)c1OC [Example 143] | 320 |
| COc1c(Nc2cc(NC(=O)C3CC3)nnc2C(N)=O)cccc1-c1noc(CN(C)S(C)(=O)=O)n1 [Example 44] | 9 |
| [2H]C([2H])([2H])NC(=O)c1nnc(NC(=O)C2CC2)cc1Nc1cccc(-c2noc(CN3CCOC3=O)n2)c1OC [Example 77] | 40 |
| [2H]C([2H])([2H])NC(=O)c1nnc(NC(=O)C2CC2)cc1Nc1cccc(-c2noc(C3CCCO3)n2)c1OC (centres unmarked) [Example 81] | 180 |
| [2H]C([2H])([2H])NC(=O)c1nnc(NC(=O)C2CC2)cc1Nc1cccc(-c2ncc(C(=O)N[C@H]3C[C@H]4CC[C@@H](C3)N4C)s2)c1OC [Example 338] | 420 |
| [2H]C([2H])([2H])NC(=O)c1nnc(NC(=O)C2CC2)cc1Nc1cccc(-c2noc(CN(C)S(C)(=O)=O)n2)c1OC [Example 65] | 16 |
| COc1c(Nc2cc(NC(=O)C3CC3)nnc2C(N)=O)cccc1-c1noc(CO)n1 [Example 70] | 14 |
| [2H]C([2H])([2H])NC(=O)c1nnc(NC(=O)C2CC2)cc1Nc1cccc(-c2nc(CN3CCN(C(=O)CC#N)CC3)no2)c1OC [Example 134] | 110 |
| COc1c(Nc2cc(N)nnc2C(N)=O)cccc1-c1noc(C(=O)NC2CCN(C)CC2)n1 [Example 116] | 4970 |
| [2H]C([2H])([2H])NC(=O)c1nnc(NC(=O)C2CC2)cc1Nc1cccc(-c2nc(CNC(=O)CC#N)no2)c1OC [Example 148] | 1820 |
| COc1c(Nc2cc(NC(=O)C3CC3)nnc2C(N)=O)cccc1-c1noc(CN(C)S(=O)(=O)C(C)C)n1 [Example 58] | 11 |
| [2H]C([2H])([2H])NC(=O)c1nnc(NC(=O)C2CC2)cc1Nc1cccc(-c2nc(C3(N)CC3)no2)c1OC [Example 156] | 630 |
| [2H]C([2H])([2H])NC(=O)c1nnc(NC(=O)C2CC2)cc1Nc1cccc(-c2nc(CNC(=O)CN(C)C(=O)OC(C)(C)C)no2)c1OC [Example 153] | > 10000 |
| [2H]C([2H])([2H])NC(=O)c1nnc(NC(=O)C2CC2)cc1Nc1cccc(-c2noc(CN)n2)c1OC [Example 6, 4-((3-(5-(aminomethyl)-1,2,4-oxadiazol-3-yl)-2-methoxyphenyl)amino)-6-(cyclopropanecarboxamido)-N-trideuteromethylpyridazine-3-carboxamide] | 110 |
| [2H]C([2H])([2H])NC(=O)c1cnc(NC(=O)C2CC2)cc1Nc1cccc(-c2noc(COC)n2)c1OC [Example 93] | 50 |
| [2H]C([2H])([2H])NC(=O)c1nnc(NC(=O)C2CC2)cc1Nc1cccc(-c2noc(CN3CCCCS3(=O)=O)n2)c1OC [Example 12] | 11 |
| [2H]C([2H])([2H])NC(=O)c1nnc(NC(=O)C2CC2)cc1Nc1cccc(-c2nc(CN3CCN(C(=O)c4cccnc4)CC3)no2)c1OC [Example 131] | 740 |
| COc1c(Nc2cc(NC(=O)C3CC3)nnc2C(N)=O)cccc1-c1noc(CN(C)C)n1 [Example 63] | 30 |

Next, values leading:

| IC50 [nM] | Compound |
| --- | --- |
| 4440 | [2H]C([2H])([2H])NC(=O)c1cnc(NC(=O)C2CC2)cc1Nc1cccc(-c2nc(C3(NC(=O)OC(C)(C)C)CC3)no2)c1OC [Example 213] |
| 150 | [2H]C([2H])([2H])NC(=O)c1nnc(NC(=O)C2CC2)cc1Nc1cccc(-c2ncc(C(C)(C)O)s2)c1OC [Example 267] |
| 330 | [2H]C([2H])([2H])NC(=O)c1nnc(NC(=O)C2CC2)cc1Nc1cccc(-c2ncc(C(=O)NCCCCC)s2)c1OC [Example 316] |
| 30 | [2H]C([2H])([2H])NC(=O)c1nnc(NC(=O)C2CC2)cc1Nc1cccc(-c2ncc(C(=O)NCC3CCN(C)C3)s2)c1OC (centres unmarked) [Example 326] |
| 790 | [2H]C([2H])([2H])NC(=O)c1nnc(NC(=O)C2CC2)cc1Nc1cccc(-c2nc(C(C)(C)O)no2)c1OC [Example 186] |
| > 10000 | [2H]C([2H])([2H])NC(=O)c1cnc(NC(=O)C2CC2)cc1Nc1cccc(-c2cnn(CCNC(=O)OC(C)(C)C)n2)c1OC [Example 430] |
| 110 | [2H]C([2H])([2H])NC(=O)c1nnc(NC(=O)C2CC2)cc1Nc1cc(F)cc(-c2cc(C(=O)N3CCN(C)CC3)n(C)n2)c1OC [Example 497] |
| 1270 | [2H]C([2H])([2H])NC(=O)c1nnc(NC(=O)C2CC2)cc1Nc1cccc(-c2nc([C@@H](NC(=O)OC)[C@@H](C)O)no2)c1OC [Example 188] |
| 890 | [2H]C([2H])([2H])NC(=O)c1nnc(Nc2ccc(C)nn2)cc1Nc1cccc(-c2ccn(CCNC(=O)COC)n2)c1OC [Example 542] |
| 40 | [2H]C([2H])([2H])NC(=O)c1nnc(Nc2ccc(C)nn2)cc1Nc1cccc(-c2ncc(C(=O)N(C)C)s2)c1OC [Example 384] |
| 60 | [2H]C([2H])([2H])NC(=O)c1cnc(NC(=O)C2CC2)cc1Nc1cc(F)cc(-c2cc(C(=O)N(C)C)n(C)n2)c1OC [Example 456] |
| 60 | [2H]C([2H])([2H])NC(=O)c1nnc(NC(=O)C2CC2)cc1Nc1cccc(-c2cc(C(=O)N3CCN(CCO)CC3)n(C)n2)c1OC [Example 476] |
| 470 | [2H]C([2H])([2H])NC(=O)c1nnc(NC(=O)C2CC2)cc1Nc1cccc(-c2cc(C(=O)N3CNCC(=O)C3)n(C)n2)c1OC [Example 532] |
| 1270 | [2H]C([2H])([2H])NC(=O)c1nnc(NC(=O)C2CC2)cc1Nc1cccc(-c2nc([C@H](NC(=O)CC)[C@H](C)O)no2)c1OC [Example 208] |
| 330 | [2H]C([2H])([2H])NC(=O)c1nnc(NC(=O)C2CC2)cc1Nc1cccc(-c2ncc(C(=O)NCC#N)s2)c1OC [Example 300] |
| 150 | [2H]C([2H])([2H])NC(=O)c1nnc(NC(=O)C2CC2)cc1Nc1cccc(-c2ncc(C(=O)NCc3ccccc3)s2)c1OC [Example 289] |
| > 10000 | [2H]C([2H])([2H])NC(=O)c1nnc(NC(=O)C2CC2)cc1Nc1cccc(-c2ncc(C(=O)Nc3ccc(OC)cc3)s2)c1OC [Example 296] |
| 1650 | [2H]C([2H])([2H])NC(=O)c1nnc(NC(=O)C2CC2)cc1Nc1cccc(-c2nc([C@H](CO)NC(=O)CC)no2)c1OC [Example 198] |
| 200 | [2H]C([2H])([2H])NC(=O)c1nnc(NC(=O)C2CC2)cc1Nc1cccc(-c2nc([C@@H](CO)NC(C)=O)no2)c1OC [Example 220] |
| 200 | [2H]C([2H])([2H])NC(=O)c1nnc(NC(=O)C2CC2)cc1Nc1cccc(-c2cnn(CCO)n2)c1OC [Example 450] |
| 60 | [2H]C([2H])([2H])NC(=O)c1cnc(NC(=O)C2CC2)cc1Nc1cccc(-c2cc(C(=O)N(C)C)n(C)n2)c1OC [Example 486] |
| 770 | [2H]C([2H])([2H])NC(=O)c1nnc(NC(=O)C2CC2)cc1Nc1cccc(-c2cc(C(=O)N(C)CC(O)CO)n(C)n2)c1OC (centres unmarked) [Example 520] |
| 60 | [2H]C([2H])([2H])NC(=O)c1nnc(NC(=O)C2CC2)cc1Nc1cccc(-c2cc(C(=O)N(C)C)n(C)n2)c1OC [Example 483] |
